Legend:
S protein of HCoV-OC43 = S protein of HCoV-OC43 (Human coronavirus OC43, UniProt P36334); assay: SPR, Reichert4, CM5 chip, protein immobilised; assay type: binding
S protein of HCoV-229E = S protein of HCoV-229E (Human coronavirus 229E, UniProt P15423); assay: SPR, Reichert4, CM5 chip, protein immobilised; assay type: binding
S protein of HCoV-229E, sequence (P15423 16-1173): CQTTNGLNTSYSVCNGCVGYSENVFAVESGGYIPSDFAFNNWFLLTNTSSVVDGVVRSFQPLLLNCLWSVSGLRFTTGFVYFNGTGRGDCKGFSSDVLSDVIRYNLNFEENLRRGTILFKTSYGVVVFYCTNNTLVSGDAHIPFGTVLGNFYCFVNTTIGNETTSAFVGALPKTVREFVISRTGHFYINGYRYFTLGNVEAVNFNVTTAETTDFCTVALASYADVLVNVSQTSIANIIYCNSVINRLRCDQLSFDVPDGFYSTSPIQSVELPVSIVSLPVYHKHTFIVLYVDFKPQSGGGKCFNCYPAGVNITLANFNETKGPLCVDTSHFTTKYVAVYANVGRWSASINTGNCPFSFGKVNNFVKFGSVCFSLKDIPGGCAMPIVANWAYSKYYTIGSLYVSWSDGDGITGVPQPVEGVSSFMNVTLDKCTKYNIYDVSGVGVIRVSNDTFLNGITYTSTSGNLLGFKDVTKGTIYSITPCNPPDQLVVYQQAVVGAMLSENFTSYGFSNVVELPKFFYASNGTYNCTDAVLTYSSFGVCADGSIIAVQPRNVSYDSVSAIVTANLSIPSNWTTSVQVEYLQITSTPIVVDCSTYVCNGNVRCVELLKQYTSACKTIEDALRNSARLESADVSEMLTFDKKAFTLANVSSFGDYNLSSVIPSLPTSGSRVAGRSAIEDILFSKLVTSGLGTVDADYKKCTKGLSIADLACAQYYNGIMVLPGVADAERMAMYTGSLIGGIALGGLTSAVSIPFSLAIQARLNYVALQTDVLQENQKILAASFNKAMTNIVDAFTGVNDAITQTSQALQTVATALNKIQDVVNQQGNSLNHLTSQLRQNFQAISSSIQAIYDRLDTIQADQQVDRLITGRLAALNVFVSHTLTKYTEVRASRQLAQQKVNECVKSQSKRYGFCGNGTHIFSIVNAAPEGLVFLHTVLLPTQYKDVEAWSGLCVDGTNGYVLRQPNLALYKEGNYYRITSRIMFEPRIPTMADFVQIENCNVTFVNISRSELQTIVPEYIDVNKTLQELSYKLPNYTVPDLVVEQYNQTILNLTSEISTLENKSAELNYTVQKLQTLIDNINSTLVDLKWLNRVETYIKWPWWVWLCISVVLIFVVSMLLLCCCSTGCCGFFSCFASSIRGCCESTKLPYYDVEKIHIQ

S protein of HCoV-OC43, sequence (P36334 14-1353): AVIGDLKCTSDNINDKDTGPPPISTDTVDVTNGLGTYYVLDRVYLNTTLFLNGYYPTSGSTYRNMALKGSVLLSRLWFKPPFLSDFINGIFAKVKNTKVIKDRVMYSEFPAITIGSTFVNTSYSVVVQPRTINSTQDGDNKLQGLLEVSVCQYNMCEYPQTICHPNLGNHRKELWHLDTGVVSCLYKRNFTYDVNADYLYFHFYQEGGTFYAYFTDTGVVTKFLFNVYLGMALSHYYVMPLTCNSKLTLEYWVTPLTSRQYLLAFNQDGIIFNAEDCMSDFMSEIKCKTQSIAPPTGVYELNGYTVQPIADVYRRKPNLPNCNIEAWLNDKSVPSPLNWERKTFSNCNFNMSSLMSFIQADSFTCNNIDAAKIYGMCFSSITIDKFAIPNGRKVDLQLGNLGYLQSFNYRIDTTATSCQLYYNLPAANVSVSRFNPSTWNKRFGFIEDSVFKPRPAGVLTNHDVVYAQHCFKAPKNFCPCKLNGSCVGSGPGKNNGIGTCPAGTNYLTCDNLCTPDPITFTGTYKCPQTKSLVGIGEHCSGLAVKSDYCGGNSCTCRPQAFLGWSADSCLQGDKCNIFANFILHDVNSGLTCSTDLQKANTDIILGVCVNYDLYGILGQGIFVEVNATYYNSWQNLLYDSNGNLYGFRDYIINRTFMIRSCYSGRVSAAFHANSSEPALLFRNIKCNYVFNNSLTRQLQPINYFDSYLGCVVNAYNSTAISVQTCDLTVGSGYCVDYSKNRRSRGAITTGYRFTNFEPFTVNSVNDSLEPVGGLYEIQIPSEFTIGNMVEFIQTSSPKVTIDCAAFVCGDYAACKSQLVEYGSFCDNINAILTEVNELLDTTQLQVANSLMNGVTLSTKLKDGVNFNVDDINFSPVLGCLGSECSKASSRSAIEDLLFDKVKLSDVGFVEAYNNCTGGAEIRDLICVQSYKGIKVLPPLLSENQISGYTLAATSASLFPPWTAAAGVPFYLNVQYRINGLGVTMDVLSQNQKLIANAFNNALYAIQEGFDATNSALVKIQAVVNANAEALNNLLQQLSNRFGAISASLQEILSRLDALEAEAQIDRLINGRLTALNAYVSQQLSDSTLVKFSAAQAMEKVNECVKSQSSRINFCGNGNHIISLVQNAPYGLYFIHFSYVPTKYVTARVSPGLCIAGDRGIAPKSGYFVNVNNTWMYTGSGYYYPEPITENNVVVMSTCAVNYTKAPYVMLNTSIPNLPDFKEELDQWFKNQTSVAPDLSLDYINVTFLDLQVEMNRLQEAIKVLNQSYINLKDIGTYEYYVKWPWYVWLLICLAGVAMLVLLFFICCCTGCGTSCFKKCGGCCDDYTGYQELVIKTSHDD

CC1(C)[C@@H](O[C@H]2O[C@H](C(=O)O)[C@@H](O)[C@H](O)[C@H]2O[C@@H]2O[C@H](C(=O)O)[C@@H](O)[C@H](O)[C@H]2O)CC[C@]2(C)[C@H]3C(=O)C=C4[C@@H]5C[C@@](C)(C(=O)O)CC[C@]5(C)CC[C@@]4(C)[C@]3(C)CC[C@@H]12 [Diammonium glycyrrhizinate]
Kd (S protein of HCoV-OC43): 5.76 µM | Kd (S protein of HCoV-229E): 37.9 µM
